This note sets out measurements from BindingDB's records for doi:10.1021/jm0704550 (Cnrs, 2007).

This assay addresses Growth hormone secretagogue receptor type 1 (Homo sapiens, UniProt Q92847). Kind of assay: Receptor Binding Studies.

Growth hormone secretagogue receptor type 1, sequence (Q92847 whole entry): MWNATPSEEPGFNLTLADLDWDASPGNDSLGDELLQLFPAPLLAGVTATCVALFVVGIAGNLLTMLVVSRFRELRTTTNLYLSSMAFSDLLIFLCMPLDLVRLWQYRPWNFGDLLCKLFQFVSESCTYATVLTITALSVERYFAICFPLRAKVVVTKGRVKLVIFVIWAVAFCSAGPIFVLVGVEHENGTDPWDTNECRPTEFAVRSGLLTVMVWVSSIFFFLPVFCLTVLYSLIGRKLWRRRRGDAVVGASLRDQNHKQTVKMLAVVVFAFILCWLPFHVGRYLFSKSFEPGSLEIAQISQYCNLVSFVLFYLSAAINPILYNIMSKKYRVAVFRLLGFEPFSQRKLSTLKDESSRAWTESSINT

`O=C(N[C@H](Cc1c[nH]c2ccccc12)c1nnc(CCc2ccccc2)n1-c1ccccc1)C1CCNCC1` [N-[(1R)-2-(1H-indol-3-yl)-1-[4-phenyl-5-(2-phenylethyl)-4H-1,2,4-triazol-3-yl]ethyl]piperidine-4-carboxamide] had an IC50 of 468 nM. This counts as sub-micromolar.

Turning to `COc1ccc(Cn2c(CCc3ccccc3)nnc2[C@@H](Cc2c[nH]c3ccccc23)NC(=O)C2CCNCC2)cc1` [N-[(1R)-2-(1H-indol-3-yl)-1-{4-[(4-methoxyphenyl)methyl]-5-(2-phenylethyl)-4H-1,2,4-triazol-3-yl}ethyl]piperidine-4-carboxamide], the EC50 was 1.6 nM.

Under “pH 7.3, 25 °C”, `COc1ccc(Cn2c(CCc3ccccc3)nnc2[C@@H](Cc2c[nH]c3ccccc23)NC(=O)[C@@H]2CCCN2)cc1` [(2S)-N-[(1R)-2-(1H-indol-3-yl)-1-{4-[(4-methoxyphenyl)methyl]-5-(2-phenylethyl)-4H-1,2,4-triazol-3-yl}ethyl]pyrrolidine-2-carboxamide] came in with an IC50 of 9.5 nM and a Kb of 13 nM.
